Tested on: 677734-321-R-J1-PDC complex spheroid viability
Assay: Anticancer human tumor 677734-321-R-J1-PDC patient-derived soft tissue sarcoma cell line growth inhibition [POLQ]
Settings: for IC50: curve of first compound; for viability, T/C: stronger effect = lower value
How it was run: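 Three-cell-type spheroids modelling solid tumor plus stroma served as the readout system; POL inhibitors were tested individually and in combination, concentration ranges set by clinical Cmax where known.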

[1] = second compound 0.0316 µM, first compound 0.0316 µM
[2] = second compound 0.0316 µM, first compound 0.1 µM
[3] = second compound 0.0316 µM, first compound 0.316 µM
[4] = second compound 0.0316 µM, first compound 1 µM
[5] = second compound 0.0316 µM, first compound 3.16 µM
[6] = second compound 0.0316 µM, first compound 10 µM
[7] = second compound 0.1 µM, first compound 0.0316 µM
[8] = second compound 0.1 µM, first compound 0.1 µM
[9] = second compound 0.1 µM, first compound 0.316 µM
[10] = second compound 0.1 µM, first compound 1 µM
[11] = second compound 0.1 µM, first compound 3.16 µM
[12] = second compound 0.1 µM, first compound 10 µM
[13] = second compound 0.316 µM, first compound 0.0316 µM
[14] = second compound 0.316 µM, first compound 0.1 µM
[15] = second compound 0.316 µM, first compound 0.316 µM
[16] = second compound 0.316 µM, first compound 1 µM
[17] = second compound 0.316 µM, first compound 3.16 µM
[18] = second compound 0.316 µM, first compound 10 µM
[19] = second compound 1 µM, first compound 0.0316 µM
[20] = second compound 1 µM, first compound 0.1 µM
[21] = second compound 1 µM, first compound 0.316 µM
[22] = second compound 1 µM, first compound 1 µM
[23] = second compound 1 µM, first compound 3.16 µM
[24] = second compound 1 µM, first compound 10 µM
[25] = second compound 3.16 µM, first compound 0.0316 µM
[26] = second compound 3.16 µM, first compound 0.1 µM
[27] = second compound 3.16 µM, first compound 0.316 µM
[28] = second compound 3.16 µM, first compound 1 µM
[29] = second compound 3.16 µM, first compound 3.16 µM
[30] = second compound 3.16 µM, first compound 10 µM
[31] = second compound 10 µM, first compound 0.0316 µM
[32] = second compound 10 µM, first compound 0.1 µM
[33] = second compound 10 µM, first compound 0.316 µM
[34] = second compound 10 µM, first compound 1 µM
[35] = second compound 10 µM, first compound 3.16 µM
[36] = second compound 10 µM, first compound 10 µM
[37] = second compound 0.0316 µM, first compound 0.00316 µM
[38] = second compound 0.0316 µM, first compound 0.01 µM
[39] = second compound 0.1 µM, first compound 0.00316 µM
[40] = second compound 0.1 µM, first compound 0.01 µM
[41] = second compound 0.316 µM, first compound 0.00316 µM
[42] = second compound 0.316 µM, first compound 0.01 µM
[43] = second compound 1 µM, first compound 0.00316 µM
[44] = second compound 1 µM, first compound 0.01 µM
[45] = second compound 3.16 µM, first compound 0.00316 µM
[46] = second compound 3.16 µM, first compound 0.01 µM
[47] = second compound 10 µM, first compound 0.00316 µM
[48] = second compound 10 µM, first compound 0.01 µM
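Further: spheroids exposed to compounds for one week.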
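Wherever viability, T/C is given: 100% = vehicle DMSO treated spheroids.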

With `CCCS(=O)(=O)Nc1ccc(F)c(C(=O)c2c[nH]c3ncc(-c4ccc(Cl)cc4)cc23)c1F` + Cc1cccc(N(C)C(=O)C2C(O)CCN2c2nc(C)cc(C(F)(F)F)c2C#N)c1 the IC50 (second compound 0.0316 µM) was 4.25 µM, the IC50 (second compound 0.1 µM) was 3.82 µM and the IC50 (second compound 0.316 µM) was 3.99 µM. For the same molecule, the IC50 (second compound 1 µM) was 3.12 µM, the IC50 (second compound 3.16 µM) was 2.92 µM and the IC50 (second compound 10 µM) was 2 µM. It also gave a viability, T/C [1] of 104%, a viability, T/C [2] of 105% and a viability, T/C [3] of 108%. It also gave a viability, T/C [4] of 99.8%, a viability, T/C [5] of 65.3% and a viability, T/C [6] of 5.8%. The viability, T/C [7] was 94.5%, the viability, T/C [8] was 87.3% and the viability, T/C [9] was 100%. It also gave a viability, T/C [10] of 86.4%, a viability, T/C [11] of 59.1% and a viability, T/C [12] of 4.58%. It also gave a viability, T/C [13] of 90.7%, a viability, T/C [14] of 101% and a viability, T/C [15] of 89.1%. It also gave a viability, T/C [16] of 96%, a viability, T/C [17] of 61.9% and a viability, T/C [18] of 3.41%. For the same molecule, the viability, T/C [19] was 101%, the viability, T/C [20] was 93.2% and the viability, T/C [21] was 79.6%. The viability, T/C [22] was 108%, the viability, T/C [23] was 49.4% and the viability, T/C [24] was 2.83%. It also gave a viability, T/C [25] of 94.1%, a viability, T/C [26] of 84.6% and a viability, T/C [27] of 94%. For the same molecule, the viability, T/C [28] was 98.4%, the viability, T/C [29] was 46.8% and the viability, T/C [30] was 2.44%. For the same molecule, the viability, T/C [31] was 80.1%, the viability, T/C [32] was 71.7% and the viability, T/C [33] was 80.6%. It also gave a viability, T/C [34] of 83.3%, a viability, T/C [35] of 30.8% and a viability, T/C [36] of 0.79%.
`CNCc1ccc(-c2[nH]c3cc(F)cc4c3c2CCNC4=O)cc1` + Cc1cccc(N(C)C(=O)C2C(O)CCN2c2nc(C)cc(C(F)(F)F)c2C#N)c1 was tested, and the IC50 (second compound 0.0316 µM) was > 10 µM, the IC50 (second compound 0.1 µM) was > 10 µM and the IC50 (second compound 0.316 µM) was > 10 µM. The IC50 (second compound 1 µM) was > 10 µM, the IC50 (second compound 3.16 µM) was > 10 µM and the IC50 (second compound 10 µM) was > 10 µM. For the same molecule, the viability, T/C [1] was 107%, the viability, T/C [2] was 104% and the viability, T/C [3] was 107%. The viability, T/C [4] was 106%, the viability, T/C [5] was 107% and the viability, T/C [6] was 107%. The viability, T/C [7] was 108%, the viability, T/C [8] was 110% and the viability, T/C [9] was 103%. The viability, T/C [10] was 101%, the viability, T/C [11] was 106% and the viability, T/C [12] was 105%. It also gave a viability, T/C [13] of 120%, a viability, T/C [14] of 104% and a viability, T/C [15] of 104%. The viability, T/C [16] was 105%, the viability, T/C [17] was 113% and the viability, T/C [18] was 98.9%. It also gave a viability, T/C [19] of 108%, a viability, T/C [20] of 94.9% and a viability, T/C [21] of 104%. The viability, T/C [22] was 114%, the viability, T/C [23] was 106% and the viability, T/C [24] was 107%. For the same molecule, the viability, T/C [25] was 110%, the viability, T/C [26] was 96.5% and the viability, T/C [27] was 102%. The viability, T/C [28] was 108%, the viability, T/C [29] was 107% and the viability, T/C [30] was 99.3%. The viability, T/C [31] was 109%, the viability, T/C [32] was 95.2% and the viability, T/C [33] was 104%. For the same molecule, the viability, T/C [34] was 101%, the viability, T/C [35] was 91.4% and the viability, T/C [36] was 98.6%.
With `COc1cccc(OCCCN)c1-c1cc(Nc2cnc(C#N)cn2)n[nH]1` + Cc1cccc(N(C)C(=O)C2C(O)CCN2c2nc(C)cc(C(F)(F)F)c2C#N)c1 the IC50 (second compound 0.0316 µM) was 0.00514 µM, the IC50 (second compound 0.1 µM) was 0.00554 µM and the IC50 (second compound 0.316 µM) was 0.00535 µM. For the same molecule, the IC50 (second compound 1 µM) was 0.00349 µM, the IC50 (second compound 3.16 µM) was 0.00487 µM and the IC50 (second compound 10 µM) was < 0.00316 µM. For the same molecule, the viability, T/C [37] was 80.6%, the viability, T/C [38] was 8.11% and the viability, T/C [1] was 6.8%. It also gave a viability, T/C [2] of 5.31%, a viability, T/C [3] of 4.65% and a viability, T/C [4] of 4.03%. It also gave a viability, T/C [39] of 89.8%, a viability, T/C [40] of 8.11% and a viability, T/C [7] of 6.65%. It also gave a viability, T/C [8] of 5.48%, a viability, T/C [9] of 6.82% and a viability, T/C [10] of 4.61%. For the same molecule, the viability, T/C [41] was 84.1%, the viability, T/C [42] was 9.52% and the viability, T/C [13] was 6.22%. It also gave a viability, T/C [14] of 5.29%, a viability, T/C [15] of 5.08% and a viability, T/C [16] of 4.86%. It also gave a viability, T/C [43] of 53.9%, a viability, T/C [44] of 8.32% and a viability, T/C [19] of 6.96%. For the same molecule, the viability, T/C [20] was 6.49%, the viability, T/C [21] was 5.31% and the viability, T/C [22] was 4.98%. It also gave a viability, T/C [45] of 70.3%, a viability, T/C [46] of 16.3% and a viability, T/C [25] of 7.33%. The viability, T/C [26] was 5.44%, the viability, T/C [27] was 6.24% and the viability, T/C [28] was 4.93%. For the same molecule, the viability, T/C [47] was 48.1%, the viability, T/C [48] was 11.5% and the viability, T/C [31] was 7.44%. The viability, T/C [32] was 5.3%, the viability, T/C [33] was 6.55% and the viability, T/C [34] was 4.1%.
With `Cn1ncnc1[C@H]1c2n[nH]c(=O)c3cc(F)cc(c23)N[C@@H]1c1ccc(F)cc1` + Cc1cccc(N(C)C(=O)C2C(O)CCN2c2nc(C)cc(C(F)(F)F)c2C#N)c1 the IC50 (second compound 0.0316 µM) was > 0.1 µM, the IC50 (second compound 0.1 µM) was > 0.1 µM and the IC50 (second compound 0.316 µM) was > 0.1 µM. The IC50 (second compound 1 µM) was > 0.1 µM, the IC50 (second compound 3.16 µM) was > 0.1 µM and the IC50 (second compound 10 µM) was > 0.1 µM. It also gave a viability, T/C (second compound 0.0316 µM, first compound 0.000316 µM) of 110%, a viability, T/C (second compound 0.0316 µM, first compound 0.001 µM) of 102% and a viability, T/C [37] of 100%. For the same molecule, the viability, T/C [38] was 107%, the viability, T/C [1] was 104% and the viability, T/C [2] was 87.3%. It also gave a viability, T/C (second compound 0.1 µM, first compound 0.000316 µM) of 103%, a viability, T/C (second compound 0.1 µM, first compound 0.001 µM) of 99.7% and a viability, T/C [39] of 102%. The viability, T/C [40] was 107%, the viability, T/C [7] was 101% and the viability, T/C [8] was 95.1%. The viability, T/C (second compound 0.316 µM, first compound 0.000316 µM) was 103%, the viability, T/C (second compound 0.316 µM, first compound 0.001 µM) was 97.8% and the viability, T/C [41] was 102%. It also gave a viability, T/C [42] of 102%, a viability, T/C [13] of 102% and a viability, T/C [14] of 96.2%. For the same molecule, the viability, T/C (second compound 1 µM, first compound 0.000316 µM) was 109%, the viability, T/C (second compound 1 µM, first compound 0.001 µM) was 96.4% and the viability, T/C [43] was 96.9%. It also gave a viability, T/C [44] of 103%, a viability, T/C [19] of 96% and a viability, T/C [20] of 94.5%. It also gave a viability, T/C (second compound 3.16 µM, first compound 0.000316 µM) of 100%, a viability, T/C (second compound 3.16 µM, first compound 0.001 µM) of 98.7% and a viability, T/C [45] of 101%. It also gave a viability, T/C [46] of 99%, a viability, T/C [25] of 102% and a viability, T/C [26] of 91.3%. For the same molecule, the viability, T/C (second compound 10 µM, first compound 0.000316 µM) was 103%, the viability, T/C (second compound 10 µM, first compound 0.001 µM) was 92.1% and the viability, T/C [47] was 101%. It also gave a viability, T/C [48] of 97.9%, a viability, T/C [31] of 91.3% and a viability, T/C [32] of 91.1%.
